Experimental findings from PubChem BioAssay (NCI) are described below.

Assay in all cases: NCI-60 cell line screen, 48 h
Test [1] deals with ACHN renal.
Test [2] relates to CAKI-1 renal.
Test [3] deals with HCT-116 colon.
The test system of test [4] is M14 melanoma.
Test [5] concerns NCI-H460 lung.
In test [6] the test system is OVCAR-5 ovarian.
For test [7], the system named is SF-268 CNS.
In test [8] the test system is SNB-75 CNS.
The subject of test [9] is TK-10 renal.

Values joined by “and” are separate entries in the source; they are usually repeats but may differ in a detail not shown here. Identical values can stand only once.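 In this assay, cells in 96-well plates receive the compound at five concentrations for 48 hours. Endpoints are linearly interpolated between the surrounding concentrations. GI50 = concentration required for 50% inhibition of growth. TGI marks complete inhibition of growth.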

For `CCSc1nc2sc(C)c(C)c2c(=O)n1-c1ccc(C(=O)O)cc1`, the TGI is greater than 100 µM in [1]; greater than 100 µM in test [2]; 74.3 µM in test [3]; greater than 100 µM in [4]; greater than 100 µM in test [5]; greater than 100 µM in test [6]. For the same molecule, the TGI in test [7] is greater than 100 µM; in [8] it was 70 µM; in test [9], greater than 100 µM.
For `CC(=O)OCC1OC(OC2CC3C(C)(C)C(OC(C)=O)CC[C@]3(C)C3CCC45CC4(CC[C@H]5C(C)CC(O)C4OC4(C)C)[C@]23C)C(O)C(O)C1O` (some centres not stated), the GI50 in test [1] is 3.44 µM; in test [2], 15.6 µM; in [3], 2.14 µM; in test [5], 3.21 µM; in test [6] it was 2.02 µM; in test [7], 3.67 µM. Moreover, the GI50 in test [8] was 3.7 µM. In addition, the TGI in test [1] was 7.28 µM and 11.7 µM; in test [2], 12.2 µM and 29.9 µM; in [3], 3.46 µM and 4.42 µM; in test [4] it was 6.75 µM and 6.61 µM; in test [5], 5.75 µM and 9.38 µM; in test [6], 2.52 µM and 4.46 µM. Besides, the TGI in test [7] is 9.14 µM and 14.5 µM; in test [8], 8.23 µM and 12.4 µM; in test [9] it was 9.79 µM and 12.7 µM.
Consider `CCCCCCCCCCCCCC/C(C(=O)OC)=C(/O)C(=O)OCC`, for which the TGI in [1] is greater than 100 µM; in [2], greater than 100 µM; in test [3], greater than 100 µM; in test [4] it was 37.4 µM; in test [5] it was greater than 100 µM; in test [6], 70.1 µM. The results for the TGI in [7], in test [8] and in test [9] were 64.3 µM, greater than 100 µM and greater than 100 µM, respectively.
Turning to `FC(F)(F)c1ccc(C=NC23CC4CC(CC(C4)C2)C3)cc1`, the TGI in [1], in test [2], in [3], in [4], in [5] and in test [6] was greater than 100 µM in each case. Besides, the TGI in [7], in test [8] and in test [9] was greater than 100 µM each time.
As to `O=C1CC2CCCCC2=C1O` (configuration not stated), the TGI in [1], in [2], in test [3], in test [5], in test [6] and in [7] was greater than 100 µM throughout. For the same molecule, the TGI in test [8] and in test [9] was greater than 100 µM in each case.
Consider `CCOC(OCC)C(CC)[Se]c1ccccc1[N+](=O)[O-]` (configuration not stated), for which the TGI in [1] is greater than 100 µM; in [2] it was 88.8 µM; in [3], 30.2 µM; in test [4], 15.3 µM; in test [5], 18.6 µM; in test [6] it was greater than 100 µM. The TGI in [7] was 63.9 µM; in test [8] it was greater than 100 µM; in test [9] it was greater than 100 µM.
Turning to `COC(=O)C1=C(C(=O)OC)C23C=CC=CC24C(C(=O)OC)=C(C(=O)OC)C4C1C3` (configuration not stated), the TGI in test [1], in [3], in test [4], in test [5], in [6] and in test [7] was greater than 100 µM each time. For the same molecule, the values for the TGI in test [8] and in [9] were 9.08 µM and greater than 100 µM, respectively.
Consider `NC(=O)c1csc(C2C=CC(CO)O2)n1` (configuration not stated), for which the TGI in test [1], in test [2], in test [3], in test [4], in test [5] and in test [6] was greater than 100 µM in each case. The TGI in test [7] and in test [9] was greater than 100 µM throughout.
Consider `C/C(=N\NC(=O)CC(=O)Nc1ccc(Cl)cc1)c1cc2ccccc2oc1=O`, for which the TGI in test [1], in [3], in [4], in test [5], in test [8] and in test [9] was greater than 100 µM each time.
As for `Cn1cc2c(n1)c(N/N=C/c1ccccc1)nn1nnnc21`, the TGI in [1], in test [2], in test [3], in test [4], in test [5] and in [7] was greater than 100 µM throughout. For the same molecule, the TGI in test [8] and in test [9] was greater than 100 µM in each case.
`N/N=C1\c2ccccc2C2/C(=N\N)c3ccccc3C12` (configuration not stated): the TGI in test [1], in test [2], in [4], in test [5], in [6] and in test [7] was greater than 100 µM throughout. The TGI in [8] and in [9] was greater than 100 µM in each case.
Regarding `C=CCNC1=C(C(=O)OCC)C(=O)CO1`, the TGI in [1], in test [2], in test [3], in test [4], in test [5] and in test [6] was greater than 100 µM in each case. For the same molecule, the TGI in [7], in test [8] and in test [9] was greater than 100 µM each time.
With `COc1ccc(NC(=O)C(=O)NNC(=O)c2sc(NNC(C)=O)nc2C)c([N+](=O)[O-])c1`, the TGI in test [1], in test [3], in test [4], in test [5], in [6] and in [7] was greater than 100 µM throughout. Besides, the TGI in [9] was greater than 100 µM.
On to `Cc1ccc(S(=O)(=O)CNC(=S)CCCC(=S)NCS(=O)(=O)c2ccc(C)cc2)cc1`, for which the TGI in test [2], in test [3], in [4], in test [5], in test [6] and in test [7] was greater than 100 µM each time. Moreover, the TGI in [8] and in test [9] was greater than 100 µM throughout.
For `NC(=O)N/N=C(\Cc1nc2ccc(C(=O)c3ccccc3)cc2[nH]c1=O)C(=O)Nc1ccc(Br)cc1`, the TGI in test [1], in test [2], in test [3], in test [4], in [5] and in test [6] was greater than 100 µM each time. The TGI in test [7], in test [8] and in [9] was greater than 100 µM throughout.
On to `CC(=O)O[C@H]1[C@@H]2[C@@H]3[C@@H](C[C@H]1C)[C@@H](C)CO[C@@]1(C)CC/C=C(/C)C[C@@H]2O[C@@H]31`, for which the TGI in test [1], in test [2], in [3], in test [4], in test [5] and in test [6] was greater than 100 µM in each case. Besides, the TGI in [7], in test [8] and in test [9] was greater than 100 µM each time.
Take `O=[N+]([O-])c1ccc(NC2OCC(O)C(O)C2O)cc1` (configuration not stated): the TGI in test [1], in test [2], in test [4], in test [5], in [7] and in test [8] was greater than 100 µM each time. In addition, in [9], the TGI was greater than 100 µM.
Consider `Cc1cc(N(CCC#N)CCC#N)ccc1/C=C(\NC(=O)/C=C/c1ccccc1)NC(=O)Nc1ccc(Cl)cc1`, for which the TGI in test [1], in [2], in [3], in [4], in test [5] and in test [6] was greater than 100 µM throughout. Moreover, in test [7], the TGI was greater than 100 µM.
As to `CC1=C(C(=O)Nc2ccccc2C)C(c2ccc([N+](=O)[O-])cc2)C(C(=O)Nc2ccccc2C)=C(C)N1`, the TGI in test [1], in [2], in [4], in [5], in test [6] and in [7] was greater than 100 µM each time. The TGI in test [8] was 86.5 µM; in test [9], greater than 100 µM.
On to `CCOP(=O)(CC(=O)C1=C(O)C(CCCNC(=O)OC(C)(C)C)N(Cc2ccc(OC)c(OC)c2)C1=O)OCC` (configuration not stated), for which the TGI in test [1], in [3], in test [4], in [5], in [6] and in test [7] was greater than 100 µM throughout. Further, the TGI in test [8] and in test [9] was greater than 100 µM throughout.
As for `CC12O[C@H](c3ccccc3)[C@H](c3ccccc3)N1C(=O)C1(C(=O)OCc3ccccc3)CC12` (some centres not stated), the TGI in test [1], in [2], in test [3], in test [4], in test [5] and in [6] was greater than 100 µM in each case. Also, the TGI in test [7] and in test [8] was greater than 100 µM in each case.
With `CN(C)c1ccc(/C=C2\CNC/C(=C\c3ccc(N(C)C)cc3)C2=O)cc1`, the TGI in [1] was 54 µM; in [3], 35.1 µM; in test [4] it was greater than 100 µM; in test [5], 29.4 µM; in test [6], greater than 100 µM; in test [8], 27.2 µM. Moreover, in [9], the TGI is greater than 100 µM.
With `OCCSCCCSCCO`, the TGI in test [3], in test [4], in [5], in test [6], in test [7] and in test [8] was greater than 100 µM each time. In test [9], this molecule registered a TGI greater than 100 µM.
